Data taken from ChEMBL document CHEMBL1135000, “Stereoselective and improved syntheses and anticancer testing of 3'-O-silatranylthymidines” (Bioorg Med Chem Lett, 2002).

Assays:
Human alphaherpesvirus 2 = assay: Inhibition against herpes simplex virus type 2, measured by a cytopathic effect inhibition assay with human foreskin fibroblast (HFF) cells infected with HSV; Inactive; assay type: functional, organism-based; settings: Human alphaherpesvirus 2, HFF
Human alphaherpesvirus 1 = assay: Inhibition against herpes simplex virus type 1, measured by a cytopathic effect inhibition assay with human foreskin fibroblast (HFF)cells infected with HSV; Inactive; assay type: functional, organism-based; settings: Human alphaherpesvirus 1, HFF
Hepatitis B virus [1] = assay: Cytotoxicity when tested for inhibition against hepatitis B virus in HBV-producing human liver cell line 2.2.15; assay type: functional; settings: HepG2 2.2.15
Hepatitis B virus [2] = assay: Effective concentration required for inhibition against hepatitis B virus in HBV-producing human liver cell line 2.2.15; assay type: functional, organism-based; settings: HepG2 2.2.15

Cc1cn([C@H]2C[C@H](O[Si]34OC(C)CN(CC(C)O3)CC(C)O4)[C@@H](CO)O2)c(=O)[nH]c1=O (some centres undefined)
EC50 (Human alphaherpesvirus 2): > 100 µg/mL
EC50 (Human alphaherpesvirus 1): > 100 µg/mL

Cc1cn([C@H]2C[C@H](O[Si]34OCCN(CCO3)CCO4)[C@@H](CO)O2)c(=O)[nH]c1=O
CC50 (Hepatitis B virus [1]): 1290 µM
EC50 (Hepatitis B virus [2]): > 10 µM
